Tests used:
Type in all cases: in vivo
[1] = system: blackgrass (Alopecurus myosuroides); assay: Test A postemergence; details: for Blackgrass plant response rating: 125 g ai/ha, postemergence, visual injury rating on 0 to 100 scale (0 no effect, 100 complete control), approx. 10 d; for Plant response rating, Blackgrass: Postemergence, 500 g ai/ha, 0 to 100 scale where 0 is no effect and 100 is complete control
Text: (§1) Seeds of plant species selected from barnyardgrass (Echinochloa crus-galli), Kochia (Kochia scoparia), ragweed (common ragweed, Ambrosia elatior), ryegrass, Italian (Italian ryegrass, Lolium multiflorum), crabgrass, large (Digitaria sanguinalis), giant foxtail (Setaria faberii), green foxtail (Setaria viridis), morningglory (Ipomoea spp.), pigweed (Amaranthus retroflexus), velvetleaf (Abutilon theophrasti), wheat (Triticum aestivum), and corn (Zea mays) were planted into a blend of loam soil and sand and treated preemergence with a directed soil spray using test chemicals formulated in anon-phytotoxic solvent mixture which included a surfactant.
(§2) At the same time, plants selected from these crop and weed species and also blackgrass (Alopecurus myosuroides), and Galium (catchweed bedstraw, Galium aparine) were planted in pots containing the same blend of loam soil and sand and treated with postemergence applications of test chemicals formulated in the same manner. Plants ranged in height from 2 to 10 cm and were in the one- to two-leaf stage for the postemergence treatment. Treated plants and untreated controls were maintained in a greenhouse for approximately 10 d, after which time all treated plants were compared to untreated controls and visually evaluated for injury. Plant response ratings, summarized in Table A, are based on a 0 to 100 scale where 0 is no effect and 100 is complete control. A dash (-) response means no test result.

[2] = system: ragweed (common ragweed, Ambrosia elatior); assay: Test A postemergence; details: for Ragweed plant response rating: 125 g ai/ha, postemergence, visual injury rating on 0 to 100 scale (0 no effect, 100 complete control), approx. 10 d; for Plant response rating, Ragweed: Postemergence, 500 g ai/ha, 0 to 100 scale where 0 is no effect and 100 is complete control
Text: as §1, §2

[3] = system: giant foxtail (Setaria faberii); assay: Test A postemergence; details: for Foxtail, Giant plant response rating: 125 g ai/ha, postemergence, visual injury rating on 0 to 100 scale (0 no effect, 100 complete control), approx. 10 d; for Plant response rating, Foxtail, Giant: Postemergence, 500 g ai/ha, 0 to 100 scale where 0 is no effect and 100 is complete control
Text: as §1, §2

[4] = system: ryegrass, Italian (Italian ryegrass, Lolium multiflorum); assay: Test A postemergence; details: for Ryegrass, Italian plant response rating: 125 g ai/ha, postemergence, visual injury rating on 0 to 100 scale (0 no effect, 100 complete control), approx. 10 d; for Plant response rating, Ryegrass, Italian: Postemergence, 500 g ai/ha, 0 to 100 scale where 0 is no effect and 100 is complete control
Text: as §1, §2

[5] = system: barnyardgrass (Echinochloa crus-galli); assay: Test A postemergence; details: for Barnyardgrass plant response rating: 125 g ai/ha, postemergence, visual injury rating on 0 to 100 scale (0 no effect, 100 complete control), approx. 10 d; for Plant response rating, Barnyardgrass: Postemergence, 500 g ai/ha, 0 to 100 scale where 0 is no effect and 100 is complete control
Text: as §1, §2

corn (Zea mays) = assay: Test A postemergence; details: for Corn plant response rating: 125 g ai/ha, postemergence, visual injury rating on 0 to 100 scale (0 no effect, 100 complete control), approx. 10 d; for Plant response rating, Corn: Postemergence, 500 g ai/ha, 0 to 100 scale where 0 is no effect and 100 is complete control
Text: as §1, §2

[6] = system: pigweed (Amaranthus retroflexus); assay: Test A postemergence; details: for Pigweed plant response rating: 125 g ai/ha, postemergence, visual injury rating on 0 to 100 scale (0 no effect, 100 complete control), approx. 10 d; for Plant response rating, Pigweed: Postemergence, 500 g ai/ha, 0 to 100 scale where 0 is no effect and 100 is complete control
Text: as §1, §2

[7] = system: Galium (catchweed bedstraw, Galium aparine); assay: Test A postemergence; details: for Galium plant response rating: 125 g ai/ha, postemergence, visual injury rating on 0 to 100 scale (0 no effect, 100 complete control), approx. 10 d; for Plant response rating, Galium: Postemergence, 500 g ai/ha, 0 to 100 scale where 0 is no effect and 100 is complete control
Text: as §1, §2

Kochia (Kochia scoparia) [8] = assay: Test A postemergence; details: for Kochia plant response rating: 125 g ai/ha, postemergence, visual injury rating on 0 to 100 scale (0 no effect, 100 complete control), approx. 10 d; for Plant response rating, Kochia: Postemergence, 500 g ai/ha, 0 to 100 scale where 0 is no effect and 100 is complete control
Text: as §1, §2

[9] = system: wheat (Triticum aestivum); assay: Test A postemergence; details: for Wheat plant response rating: 125 g ai/ha, postemergence, visual injury rating on 0 to 100 scale (0 no effect, 100 complete control), approx. 10 d; for Plant response rating, Wheat: Postemergence, 500 g ai/ha, 0 to 100 scale where 0 is no effect and 100 is complete control
Text: as §1, §2

[10] = system: barnyardgrass (Echinochloa crus-galli); assay: Test B flooded paddy test; details: Flood, 250 g ai/ha; 0 to 100 scale where 0 is no effect and 100 is complete control; 13 to 15 d
Method in brief: (§3)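 Evaluation by eye, against controls, occurred 13–15 d post-treatment in a greenhouse, using a 0 (no effect) to 100 (complete control) scale. Application was into the paddy water, 3 cm deep over the soil, on 2-leaf plants.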

[11] = system: ducksalad (Heteranthera limosa); assay: Test B flooded paddy test; details: Flood, 250 g ai/ha; 0 to 100 scale where 0 is no effect and 100 is complete control; 13 to 15 d
Method in brief: as §3

rice (Oryra sativa) = assay: Test B flooded paddy test; details: Flood, 250 g ai/ha; 0 to 100 scale where 0 is no effect and 100 is complete control; 13 to 15 d
Method in brief: as §3

[12] = system: sedge, umbrella (small-flower umbrella sedge, Cyperus difformis); assay: Test B flooded paddy test; details: Flood, 250 g ai/ha; 0 to 100 scale where 0 is no effect and 100 is complete control; 13 to 15 d
Method in brief: as §3

[13] = system: ragweed (common ragweed, Ambrosia elatior); assay: Test A preemergence; details: Preemergence; for Plant response rating, Ragweed: 125 g ai/ha, visual injury after approximately 10 d, 0 to 100 scale where 0 is no effect and 100 is complete control; for Ragweed plant response rating (0 to 100 scale, 0 is no effect, 100 is complete control): 500 g ai/ha, visual injury approx. 10 d
Text: as §1, §2

[14] = system: giant foxtail (Setaria faberii); assay: Test A preemergence; details: Preemergence; for Plant response rating, Foxtail, Giant: 125 g ai/ha, visual injury after approximately 10 d, 0 to 100 scale where 0 is no effect and 100 is complete control; for Foxtail, Giant plant response rating (0 to 100 scale, 0 is no effect, 100 is complete control): 500 g ai/ha, visual injury approx. 10 d
Text: as §1, §2

[15] = system: ryegrass, Italian (Italian ryegrass, Lolium multiflorum); assay: Test A preemergence; details: Preemergence; for Plant response rating, Ryegrass, Italian: 125 g ai/ha, visual injury after approximately 10 d, 0 to 100 scale where 0 is no effect and 100 is complete control; for Ryegrass, Italian plant response rating (0 to 100 scale, 0 is no effect, 100 is complete control): 500 g ai/ha, visual injury approx. 10 d
Text: as §1, §2

[16] = system: barnyardgrass (Echinochloa crus-galli); assay: Test A preemergence; details: Preemergence; for Plant response rating, Barnyardgrass: 125 g ai/ha, visual injury after approximately 10 d, 0 to 100 scale where 0 is no effect and 100 is complete control; for Barnyardgrass plant response rating (0 to 100 scale, 0 is no effect, 100 is complete control): 500 g ai/ha, visual injury approx. 10 d
Text: as §1, §2

[17] = system: pigweed (Amaranthus retroflexus); assay: Test A preemergence; details: Preemergence; for Plant response rating, Pigweed: 125 g ai/ha, visual injury after approximately 10 d, 0 to 100 scale where 0 is no effect and 100 is complete control; for Pigweed plant response rating (0 to 100 scale, 0 is no effect, 100 is complete control): 500 g ai/ha, visual injury approx. 10 d
Text: as §1, §2

Kochia (Kochia scoparia) [18] = assay: Test A preemergence; details: Preemergence; for Plant response rating, Kochia: 125 g ai/ha, visual injury after approximately 10 d, 0 to 100 scale where 0 is no effect and 100 is complete control; for Kochia plant response rating (0 to 100 scale, 0 is no effect, 100 is complete control): 500 g ai/ha, visual injury approx. 10 d
Text: as §1, §2

Compound	Blackgrass plant response rating [1]	Plant response rating, Blackgrass [1]	Ragweed plant response rating [2]	Plant response rating, Ragweed [2]	Foxtail, Giant plant response rating [3]	Plant response rating, Foxtail, Giant [3]	Ryegrass, Italian plant response rating [4]	Plant response rating, Ryegrass, Italian [4]	Barnyardgrass plant response rating [5]	Plant response rating, Barnyardgrass [5]	Corn plant response rating (corn (Zea mays))	Plant response rating, Corn (corn (Zea mays))	Pigweed plant response rating [6]	Plant response rating, Pigweed [6]	Galium plant response rating [7]	Plant response rating, Galium [7]	Kochia plant response rating (Kochia (Kochia scoparia) [8])	Plant response rating, Kochia (Kochia (Kochia scoparia) [8])	Wheat plant response rating [9]	Plant response rating, Wheat [9]	also measured
Cc1ccc(C2CNC(=O)C2C(=O)Nc2ccccc2F)c(F)c1 (racemic) [Compound 509]	0	20	0	0	0	40	0	0	60	90	0	0	0	0	0	40	0	20	0	0	Plant response rating, Barnyardgrass [10]: 0; Plant response rating, Ducksalad [11]: 50; Plant response rating, Rice (rice (Oryra sativa)): 0; Plant response rating, Sedge, Umbrella [12]: 0; Plant response rating, Ragweed [13]: 0; Ragweed plant response rating (0 to 100 scale, 0 is no effect, 100 is complete control) [13]: 0; Plant response rating, Foxtail, Giant [14]: 40; Foxtail, Giant plant response rating (0 to 100 scale, 0 is no effect, 100 is complete control) [14]: 70; Plant response rating, Ryegrass, Italian [15]: 0; Ryegrass, Italian plant response rating (0 to 100 scale, 0 is no effect, 100 is complete control) [15]: 0; Plant response rating, Barnyardgrass [16]: 60; Barnyardgrass plant response rating (0 to 100 scale, 0 is no effect, 100 is complete control) [16]: 90; Plant response rating, Pigweed [17]: 0; Pigweed plant response rating (0 to 100 scale, 0 is no effect, 100 is complete control) [17]: 0; Plant response rating, Kochia (Kochia (Kochia scoparia) [18]): 0; Kochia plant response rating (0 to 100 scale, 0 is no effect, 100 is complete control) (Kochia (Kochia scoparia) [18]): 0
O=C1NCC(c2ccnc(C(F)(F)F)c2)C1C(=O)Nc1cccc(F)c1F (racemic) [Compound 514]	20	50	0	20	70	90	20	40	80	90	30	80	0	30	40	50	30	50	30	40	Plant response rating, Barnyardgrass [10]: 50; Plant response rating, Ducksalad [11]: 100; Plant response rating, Rice (rice (Oryra sativa)): 20; Plant response rating, Sedge, Umbrella [12]: 0; Plant response rating, Ragweed [13]: 0; Ragweed plant response rating (0 to 100 scale, 0 is no effect, 100 is complete control) [13]: 30; Plant response rating, Foxtail, Giant [14]: 90; Foxtail, Giant plant response rating (0 to 100 scale, 0 is no effect, 100 is complete control) [14]: 90; Plant response rating, Ryegrass, Italian [15]: 20; Ryegrass, Italian plant response rating (0 to 100 scale, 0 is no effect, 100 is complete control) [15]: 60; Plant response rating, Barnyardgrass [16]: 90; Barnyardgrass plant response rating (0 to 100 scale, 0 is no effect, 100 is complete control) [16]: 90; Plant response rating, Pigweed [17]: 0; Pigweed plant response rating (0 to 100 scale, 0 is no effect, 100 is complete control) [17]: 40; Plant response rating, Kochia (Kochia (Kochia scoparia) [18]): 0; Kochia plant response rating (0 to 100 scale, 0 is no effect, 100 is complete control) (Kochia (Kochia scoparia) [18]): 50

From patent US12077503B2, “Substituted cyclic amides and their use as herbicides” (FMC CORPORATION, priority 2015, dated 2024)
